Test results: patent US5541215A, “Heterocycle-substituted benzenemethanamine derivatives” (Janssen Pharmaceutica N.V., priority 1991, dated 1996)
≈ marks a conversion by molar mass, not a printed value.

Tests used:
HIV-1 = experiment: in-vitro anti-HIV assay: inhibition of HIV-induced cytopathic effect in MT-4 cells (MTT); type: cell-based; conditions: for SI (selectivity index, ratio of CD50 to ED50): CD50/ED50, MT-4 cells; for EC50: Human immunodeficiency virus 1, MT4, read-out: ED50 (50% effective dose)
Procedure: (§1) A rapid, sensitive and automated assay procedure was used for the in-vitro evaluation of anti-HIV agents. An […] T4-cell line, MT-4, which was previously shown Koyanagi et al., Int. J. Cancer, , 36, 445-451, 1985) to be highly susceptible to and permissive for HIV infection, served as the target cell line. Inhibition of the HIV-induced cytopathic effect was used as the end point. The viability of both HIV- and mock-infected cells was assessed spectrophotometrically via the in-situ reduction of 3-(4,5-dimethylthiazol-2-yl)-2,5-diphenyltetrazolium bromide (MTT). The 50% cytotoxic dose (CD50 in μg/ml) was defined as the concentration of compound that reduced the absorbance of the mock-infectedcontrol sample by 50%. The percent protection achieved by the compound in HIV-infected cells was calculated by the following formula: [formula] whereby (ODT)HIV is the optical density measured with a given concentration of the test compound in HIV-infected cells; (ODC)HIV is the optical density measured for the control untreated HIV-infected cells; (ODC)MOCK is the optical density means for the control untreated mock-infected cells; all optical density values were determined at 540 nm. The dose achieving 50% protection according to the above formula was defined as the 50% effective dose […]). The ratio of CD50 to ED50 was defined as the selectivity index (SI).

in vitro = type: cell-based; conditions: human, mt-4 cells
Procedure: as §1

| SMILES | SI (selectivity index, ratio of CD50 to ED50) (HIV-1) | EC50 (HIV-1) [µg/mL] | CC50 (in vitro) [µg/mL] |
| --- | --- | --- | --- |
| N#Cc1cccnc1NC(C(N)=O)c1c(Cl)cccc1Cl (stereo not drawn) [compound 2] | 243 | 0.1 (≈ 0.311 µM) | 25.3 (≈ 78.8 µM) |
| CC(Nc1ncccc1[N+](=O)[O-])c1c(Cl)cccc1Cl (stereo not drawn) [compound 13] | 33 | 0.0073 (≈ 0.0234 µM) | 0.24 (≈ 0.769 µM) |
| CC(=O)c1nccnc1NC(C(N)=O)c1c(Cl)cccc1Cl (stereo not drawn) [compound 7] | 41.5 | 3.8 (≈ 11.2 µM) | 157 (≈ 462 µM) |
| NC(=O)C(Nc1ccc[nH]c1=O)c1c(Cl)cccc1Cl (racemic) [compound 8, (±)-2,6-dichloro-α-[(1,2-dihydro-2-oxo-3-pyridinyl)amino]benzeneacetamide] | 1181 | 0.18 (≈ 0.577 µM) | 217 (≈ 696 µM) |
| CC(=O)c1nccnc1NC(C)c1c(Cl)cccc1Cl (stereo not drawn) [compound 12] | 289 | 0.013 (≈ 0.0419 µM) | 3.82 (≈ 12.3 µM) |
| CC(=O)c1cccnc1NC(C)c1c(Cl)cccc1Cl (racemic) [compound 11, (±)-1-[2-[[1-(2,6-dichlorophenyl)ethyl]amino]-3-pyridinyl]ethanone] | 463 | 0.068 (≈ 0.22 µM) | 31.4 (≈ 102 µM) |
| NC(=O)C(Nc1ncccc1[N+](=O)[O-])c1c(Cl)cccc1Cl (racemic) [compound 1, (±)-2,6-dichloro-α-[(3-nitro-2-pyridinyl)amino]benzeneacetamide] | 1299 | 0.03 (≈ 0.0879 µM) | 35.8 (≈ 105 µM) |
| CCn1nc(C)c([N+](=O)[O-])c1NC(C(N)=O)c1c(Cl)cccc1Cl (stereo not drawn) [compound 3] | 61 | 2 (≈ 5.37 µM) | 122 (≈ 327 µM) |
